Measurements as given in patent US8540966B2, “Contrast agents endowed with high relaxivity” (Bracco Imaging S.p.A., priority 2004, dated 2013).

Assay: 1/T1 NMRD profiles: relaxivity over a range of magnetic field strength
Type: physicochemical
Settings: from 0.2 to 3 MHz; 25° C., 1 mM aqueous solution (FIG. 6)
Method: As an example, the relaxivity profile of the gadolinium complex of the chelating ligand of the invention 2b (hereinafter referred to as Gd-2b), in the above magnetic field range, has been compared with that of a marketed NSA, i.e. Magnevist®, and that of a blood pool agent, i.e. the macromolecular adduct between Gd-DTPA(BOM)3 and BSA (Bovine Serum Albumin) (FIG. 6).
The corresponding profile for the above blood pool agent is quite different.
A further test was performed in which the relaxivity values r1p, shown by the compounds of the invention as measured at 20 MHz and 298K, were plotted against the molecular reorientational values τR of the same compounds. The stability of the relaxivity properties shown by the compounds of the invention was tested. In a first experiment, the 1/T1 NMRD profiles for some compounds of the invention were acquired over a range of magnetic field strengths ranging from 0.01 to 130 MHz. […]
(§1) Conversely, the relaxivity improvement shown by the blood pool agent rapidly falls dawn over the same range of magnetic field strength. In addition to the above, please find below as per table 7, other relaxivity values, measured as above indicated, for some other representative compounds of the invention.

Molecule	relaxivity profile versus field strength
Gd-DTPA	quite stable though very low

Assay: Relaxivity determination (r1p) at 20 MHz, 298K, pH 7
Type: physicochemical
Settings: 298K, 20 MHz, pH 7; q=1 Gd complexes derived from the DTPA-monophosphonate backbone (Table 5)
Method: As far as the relaxation enhancement property is concerned, a paramagnetic Gd(III) complex is characterized by its relaxivity (r1p) which represents the increase of the proton relaxation rate of an aqueous solution of the Gd(III) complex in comparison to the proton relaxation rate of neat water (R1°). The relaxivity is usually measured at 298K and 20 MHz (0.5 T).
In order to best evaluate the relaxivity properties and the parameters affecting the relaxivity of the agents of the invention, some comparative tests have been performed. In a first experiment, the relaxivity of a number of Gd-based chelated compounds having different molecular weight, all derived from the following [Gd(DTPA-monophosphonate)]^3− basic backbone structure (r1p at 20 MHz and 298K: 6.1 mM^−1 s^−1) of formula
Tested compounds include the Gd-complex of the chelating compounds 1b and 2b of the invention (hereinafter Gd-1b and Gd-2b) as well as a number of different derivatives of the aforementioned backbone moiety selected in order to cover a range of molecular weights of up to about 1800 Dalton. The relaxivity of all of the tested compounds were measured at 298K and 20 MHz and pH 7. The obtained values, listed in table 5 below (together with the structure of the compounds) have also been plotted against the MW of the complexes (see FIG. 1).
A second experiment was performed to test the relaxivity of different compounds of the invention, marketed NSA, known LDA and other systems, all containing one coordinated water molecule (q=1). The data were registered at 298K and 20 MHz and pH=7, and plotted against their corresponding MW. Relaxivity data relating to LDA P760 and P792 (LDA contrast agents) are based on literature cited below.
as §1

Molecule	R1p (relaxivity)
O=C(O)CN(CCN(CCN(CC(=O)O)[C@@H](COCc1ccccc1)C(=O)O)CP(=O)(O)O)[C@@H](COCc1ccccc1)C(=O)O [B 22666]	7.9 mM⁻¹ s⁻¹
O=C(O)CN(CCN(CCN(CC(=O)O)[C@@H](Cc1ccccc1)C(=O)O)CP(=O)(O)O)[C@@H](Cc1ccccc1)C(=O)O [B 22606]	7.7 mM⁻¹ s⁻¹
O=C(O)CN(CCN(CCN(CC(=O)O)[C@@H](Cc1c[nH]c2ccccc12)C(=O)O)CP(=O)(O)O)C(Cc1c[nH]c2ccccc12)C(=O)O (stereo partly drawn) [B 22836]	7.9 mM⁻¹ s⁻¹

Same assay, conditions: 298K, 20 MHz, pH=7; q=1 complexes (Table 6)

Molecule	R1p (relaxivity)
O=C(O)CN1CCN(C(COCc2ccccc2)C(=O)O)CCN(C(COCc2ccccc2)C(=O)O)CCN(C(COCc2ccccc2)C(=O)O)CC1 (stereo not drawn) [Compound B19406]	7.5 mM⁻¹ s⁻¹
O=C(O)CN1CCN(CC(=O)O)CCN(C(COCc2ccccc2)C(=O)O)CCN(CC(=O)O)CC1 (stereo not drawn) [Compound B19106]	5.5 mM⁻¹ s⁻¹
O=C(O)CN1CCN(C(COCc2ccccc2)C(=O)O)CCN(CC(=O)O)CCN(C(COCc2ccccc2)C(=O)O)CC1 (stereo not drawn) [Compound B19236]	6.5 mM⁻¹ s⁻¹
O=C(O)CN(CCN(CC(=O)O)CC(=O)O)CCN(CC(=O)O)CC(=O)O [Gd-DTPA]	4.7 mM⁻¹ s⁻¹
O=C(O)CN1CCN(CC(=O)O)CCN(CC(=O)O)CCN(CC(=O)O)CC1 [Gd-DOTA]	4.7 mM⁻¹ s⁻¹

Same assay, conditions: measured as above indicated: 298K, 20 MHz (Table 7)

Molecule	R1p (relaxivity)
CC1(N(CC(=O)O)CC(=O)O)CN(C(CCC(=O)N(CCN(CCC(=O)NC(CO)(CO)CO)CCC(=O)NC(CO)(CO)CO)CCN(CCC(=O)NC(CO)(CO)CO)CCC(=O)NC(CO)(CO)CO)C(=O)O)CCN(C(CCC(=O)N(CCN(CCC(=O)NC(CO)(CO)CO)CCC(=O)NC(CO)(CO)CO)CCN(CCC(=O)NC(CO)(CO)CO)CCC(=O)NC(CO)(CO)CO)C(=O)O)C1 (stereo not drawn) [Gd-15a]	16.7 mM⁻¹ s⁻¹
O=C(O)CCC(C(=O)O)N1CCN(Cc2cccc(C(=O)NCC(CNC(=O)C(O)C(O)C(O)C(O)CO)(CNC(=O)C(O)C(O)C(O)C(O)CO)CNC(=O)C(O)C(O)C(O)C(O)CO)c2)CCN(C(CCC(=O)O)C(=O)O)CCN(C(CCC(=O)O)C(=O)O)CC1 (stereo not drawn) [Gd-1d]	24 mM⁻¹ s⁻¹
O=C(CC[C@@H](C(=O)O)N1CCN([C@@H](CCC(=O)NC(COC2OC(CO)C(O)C(O)C2O)(COC2OC(CO)C(O)C(O)C2O)COC2OC(CO)C(O)C(O)C2O)C(=O)O)CCN([C@@H](CCC(=O)NC(COC2OC(CO)C(O)C(O)C2O)(COC2OC(CO)C(O)C(O)C2O)COC2OC(CO)C(O)C(O)C2O)C(=O)O)CCN([C@@H](CCC(=O)NC(COC2OC(CO)C(O)C(O)C2O)(COC2OC(CO)C(O)C(O)C2O)COC2OC(CO)C(O)C(O)C2O)C(=O)O)CC1)NC(COC1OC(CO)C(O)C(O)C1O)(COC1OC(CO)C(O)C(O)C1O)COC1OC(CO)C(O)C(O)C1O (stereo partly drawn) [Gd-7c]	20.4 mM⁻¹ s⁻¹
